We go through 6 compounds from patent US7193108B2, “Phenylpropionic acid derivatives” (Ajinomoto Co., Inc., priority 2001, dated 2007).

As a reminder, the IC50 is the point on the concentration scale where inhibition reaches its midpoint.

This test concerns the target T1, integrin α 4 β 7 (Homo sapiens, UniProt P13612+P26010).
T1 construct: lymphoma cell strain RPMI-8866 of human B cells, known to express integrin α 4 β 7; endogenous in cells; host or cells: RPMI-8866 (human B cell lymphoma line)
T1 sequence (P13612 34-1032): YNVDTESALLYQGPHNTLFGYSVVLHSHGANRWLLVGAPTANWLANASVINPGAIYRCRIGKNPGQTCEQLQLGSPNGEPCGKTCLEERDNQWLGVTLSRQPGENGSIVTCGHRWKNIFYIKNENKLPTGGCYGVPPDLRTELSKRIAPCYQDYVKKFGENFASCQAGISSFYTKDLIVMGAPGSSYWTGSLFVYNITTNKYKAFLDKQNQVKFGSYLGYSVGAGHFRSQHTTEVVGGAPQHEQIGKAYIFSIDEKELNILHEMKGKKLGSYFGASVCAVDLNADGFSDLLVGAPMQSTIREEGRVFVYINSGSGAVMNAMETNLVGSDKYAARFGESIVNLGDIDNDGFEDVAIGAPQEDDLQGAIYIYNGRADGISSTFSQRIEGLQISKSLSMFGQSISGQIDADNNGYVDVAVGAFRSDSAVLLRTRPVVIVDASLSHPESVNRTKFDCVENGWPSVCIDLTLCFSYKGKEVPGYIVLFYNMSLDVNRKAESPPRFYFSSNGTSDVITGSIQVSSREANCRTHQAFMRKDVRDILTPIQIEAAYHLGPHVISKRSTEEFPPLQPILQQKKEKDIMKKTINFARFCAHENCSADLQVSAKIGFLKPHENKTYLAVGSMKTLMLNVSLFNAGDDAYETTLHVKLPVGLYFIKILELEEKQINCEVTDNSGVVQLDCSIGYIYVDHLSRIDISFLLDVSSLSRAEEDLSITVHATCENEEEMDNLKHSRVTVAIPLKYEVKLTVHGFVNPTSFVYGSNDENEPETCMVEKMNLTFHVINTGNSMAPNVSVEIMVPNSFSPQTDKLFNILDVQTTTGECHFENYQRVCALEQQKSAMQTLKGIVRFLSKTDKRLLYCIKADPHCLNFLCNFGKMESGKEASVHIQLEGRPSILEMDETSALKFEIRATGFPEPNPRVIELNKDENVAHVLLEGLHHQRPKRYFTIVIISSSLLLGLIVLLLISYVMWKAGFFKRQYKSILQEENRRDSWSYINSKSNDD
T1 sequence (P26010 20-798): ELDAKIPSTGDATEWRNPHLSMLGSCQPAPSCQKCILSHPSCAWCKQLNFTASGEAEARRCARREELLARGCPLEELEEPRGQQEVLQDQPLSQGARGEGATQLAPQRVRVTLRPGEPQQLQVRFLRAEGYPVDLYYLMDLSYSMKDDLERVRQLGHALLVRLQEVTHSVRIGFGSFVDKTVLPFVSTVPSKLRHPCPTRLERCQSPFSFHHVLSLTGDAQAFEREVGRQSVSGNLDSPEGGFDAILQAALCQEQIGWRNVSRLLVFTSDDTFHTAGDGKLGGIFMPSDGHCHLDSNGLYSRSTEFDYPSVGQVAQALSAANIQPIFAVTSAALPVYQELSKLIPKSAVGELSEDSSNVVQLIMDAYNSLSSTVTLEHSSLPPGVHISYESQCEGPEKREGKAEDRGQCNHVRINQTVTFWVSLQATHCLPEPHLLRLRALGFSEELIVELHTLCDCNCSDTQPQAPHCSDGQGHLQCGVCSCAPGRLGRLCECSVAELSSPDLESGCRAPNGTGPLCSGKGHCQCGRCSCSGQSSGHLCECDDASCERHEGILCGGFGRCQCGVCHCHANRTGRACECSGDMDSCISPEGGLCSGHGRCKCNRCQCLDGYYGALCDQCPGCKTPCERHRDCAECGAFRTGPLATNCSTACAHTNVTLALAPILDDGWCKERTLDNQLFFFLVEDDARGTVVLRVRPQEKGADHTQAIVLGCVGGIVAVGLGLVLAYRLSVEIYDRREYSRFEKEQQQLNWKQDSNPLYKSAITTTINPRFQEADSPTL
In words: VCAM antagonistic activity (VCAM-1/α 4 β 7 binding assay): binding of RPMI-8866 cells to VCAM-1. In kind it is cell-based. The conditions noted are these: fluorescent RPMI-8866 cells binding to recombinant human VCAM-1, 4 mM MnCl2, room temperature 30 minutes. The method, then: (Test Example) VCAM Antagonistic Activity (VCAM-1/α 4 β 7 Binding Assay)
The capacity of a test substance antagonistic to the binding of lymphoma cell strain RPMI-8866 of human B cells, known to express integrin α 4 β 7, to VCAM-1 was determined.
100 μl/well of a solution (500 ng/ml) of recombinant human VCAM-1 (R & D systems) solution diluted with buffer A (0.1 M NaHCO3, pH 9.6) was added to a micro titer plate having 96 wells (Nunc Maxisorp). After the incubation at 4° C. overnight, unbound VCAM-1 was removed by washing once with PBS. After completion of the washing, a buffer (buffer B) obtained by diluting Block Ace (Dainippon Pharmaceutical Co., Ltd.) with PBS to ¼ concentration was added in an amount of 150 μl/well. After the incubation at room temperature for 1 hour, buffer B was removed and the plate was washed with PBS once.
RPMI-8866 cells were incubated in Dulbecco modified Eagle medium containing 10 μg/ml of Calcein-AM (Wako Pure Chemical Industries, Ltd.) (SIGMA, hereinafter referred to as “DMEM”) at 37° C. for 30 minutes to label with fluorescence. The cells were again suspended in a binding buffer (20 mM HEPES, DMEM containing 0.1% BSA) containing 4 mM of MnCl2.
50 μl of a test substance of various concentrations obtained by the dilution with the binding buffer was added to the plate. Immediately thereafter, 50 μl (final volume: 100 μl/well) of the fluorescent RPMI-8866 cells (4×10^6 cells/ml) were added thereto, and they were incubated at room temperature for 30 minutes. After the shaking on a plate shaker (IKA MTS-4) at 800 rpm for 30 seconds, the solution was immediately removed to remove the unbound cells. The fluorescence quantity of the bound cells remaining in the wells was determined with a fluorescent plate reader (Wallac 1420 ARVO multi-label counter) (filter excitation wave length: 485 nm, emission wave length: 535 nm). The fluorescent strength thus obtained is proportional to the number of RPMI-8866 cells bound to VCAM-1 and remaining on the plate. The binding rate of each test material in various concentrations was determined while the fluorescent strength of the test material-free well was determined to be 100%. The concentration IC50 for the 50% binding inhibition was calculated.
The antagonistic activity is shown as A when IC50 is 0.8 μmol/L or less, B when IC50 is above 0.8 μmol/L and 4 μmol/L or less, C when IC50 is above 4 μmol/L and 20 μmol/L or less, and D when IC50 is above 20 μmol/L and 100 μmol/L or less.
Turning to `Cn1c(=O)n(-c2ccc(/C=C(\CC(=O)c3c(Cl)cccc3Cl)C(=O)O)cc2)c(=O)c2ccccc21` [Example 5, (E)-2-[2-(2,6-dichlorophenyl)-2-oxoethyl]-3-[4-(1-methyl-2,4-dioxo-1,2,3,4-tetrahydroquinazoline-3-yl)phenyl]acrylic acid], the IC50 was no more than 0.8 µM.
Take `Cn1c(=O)n(-c2ccc(CC(CC(=O)c3c(Cl)cccc3Cl)C(=O)O)cc2)c(=O)c2ccccc21` (stereo not drawn) [Example 2, 4-(2,6-dichlorophenyl)-2-[4-(1-methyl-2,4-dioxo-1,2,3,4-tetrahydroquinazoline-3-yl)benzyl]-4-oxobutanoic acid]: the IC50 was no more than 0.8 µM.
Regarding `Cn1c(=O)n(-c2ccc(CC(CC(=O)c3ccccc3)C(=O)O)cc2)c(=O)c2ccccc21` (stereo not drawn) [Example 1, 4-phenyl-2-[4-(1-methyl-2,4-dioxo-1,2,3,4-tetrahydroquinazoline-3-yl)benzyl]-4-oxobutanoic acid], the IC50 was in the range of 20 to 100 µM.
The same measure for `COC(=O)c1ccccc1NC(=O)Nc1ccc(CC(CC(=O)c2c(Cl)cccc2Cl)C(=O)O)cc1` (stereo not drawn) [Example 6, 4-(2,6-dichlorophenyl)-2-[4-[[(2-methoxycarbonylphenyl)amino]carbonylamino]benzyl]-4-oxobutanoic acid]: 20 to 100 µM.
For `Cn1c(=O)n(-c2ccc(CC(CC(=O)c3c(F)cccc3F)C(=O)O)cc2)c(=O)c2ccccc21` (stereo not drawn) [Example 3, 4-(2,6-difluorophenyl)-2-[4-(1-methyl-2,4-dioxo-1,2,3,4-tetrahydroquinazoline-3-yl)benzyl]-4-oxobutanoic acid] the value was 0.8 to 4 µM; for `Cn1c(=O)n(-c2ccc(CC(CC(O)c3c(Cl)cccc3Cl)C(=O)O)cc2)c(=O)c2ccccc21` (stereo not drawn) [Example 7, 4-(2,6-dichlorophenyl)-4-hydroxy-2-[4-(1-methyl-2,4-dioxo-1,2,3,4-tetrahydroquinazoline-3-yl)benzyl]butanoic acid], 20 to 100 µM.
